Patent US5225559A, “Diarylmethoxypiperidine derivatives” (Ube Industries, Ltd., priority 1990, dated 1993)
Structures can show the parent of a compound that is named as a salt.

Experiments:
[1] = tested on: ileum shrinkage induced by histamine; assay: inhibitory effect of the test compounds on the ileum shrinkage induced by histamine; assay type: cell-based, guinea pigs; settings: Cavia porcellus; test compound 10^-7 M; histamine 10^-5 M; isolated ileum, Magnus tank, Tyrode solution; read-out: Inhibition ratio against shrinkage by histamine
Description: (§1) Ileum samples removed from guinea pigs were suspended isotonically in a Magnus tank containing a 95% O2 and 5% CO2 saturated Tyrode solution to determine inhibitory effect of the test compounds (10^-7 M) on the ileum shrinkage induced by histamine (10^-5 M) or leukotoriene (10^-8 M). The inhibitory ratio (%) was determined by the following formula. [formula]

[2] = tested on: ileum shrinkage induced by leukotoriene; assay: inhibitory effect of the test compounds on the ileum shrinkage induced by leukotriene; assay type: cell-based, guinea pigs; settings: Cavia porcellus; test compound 10^-7 M; leukotoriene 10^-8 M; isolated ileum, Magnus tank, Tyrode solution; read-out: Inhibition ratio against shrinkage by leukotriene
Description: as §1

| SMILES | inhibition at 0.1 µM [1] | inhibition at 0.1 µM [2] |
| --- | --- | --- |
| COc1cc(C(C)=O)ccc1OCCCN1CCC(OC(c2ccccc2)c2ccccc2)CC1 [Example 2] | 96% | 30% |
| C=CCc1c(OCCCN2CCC(OC(c3ccccc3)c3ccccc3)CC2)ccc2c(C)cc(=O)oc12 [Example 7] | 67% | 51% |
| COC(=O)c1ccc(OCCCN2CCC(OC(c3ccccc3)c3ccccc3)CC2)cc1 [Example 14] | 69% | 39% |
| C=CCc1c(OCCCN2CCC(OC(c3ccc(Cl)cc3)c3ccccn3)CC2)ccc(C(C)=O)c1O (stereo not drawn) [Example 38] | 32% | 33% |
| C=CCc1c(OCCCN2CCC(OC(c3ccccc3)c3ccccc3)CC2)ccc2c(=O)cc(C(=O)OCCCC)oc12 [Example 41] | 31% | 31% |
| CCCc1c(OCC(O)CN2CCC(OC(c3ccc(F)cc3)c3ccc(F)cc3)CC2)ccc(C(C)=O)c1O (stereo not drawn) [Example 44, 1-{(3-(4-acetyl-3-hydroxy-2-n-propylphenoxy)-2-hydroxy]propyl}-4-[bis(4-fluorophenyl)methoxy]piperidine fumarate] | 43% | 35% |
| CCCc1c(OCC(O)CN2CCC(OC(c3ccc(Cl)cc3)c3ccccn3)CC2)ccc(C(C)=O)c1O (stereo not drawn) [Example 45] | 40% | 30% |
| C=CCc1c(OCC(O)CN2CCC(OC(c3ccc(Cl)cc3)c3ccccn3)CC2)ccc(C(C)=O)c1O (stereo not drawn) [Example 47] | 38% | 36% |
| COC(=O)c1cc(=O)c2cc(C(C)C)cc(NC(=O)CCCN3CCC(OC(c4ccc(F)cc4)c4ccc(F)cc4)CC3)c2o1 [Example 60] | 58% | 37% |
